Activity calls are given as the source filed them. The rule behind the calls is not given here.
Columns and labels:
[1] = system: HOS-TE85; assay: Induction of apoptosis in human MNNG cells assessed as late apoptotic cells at 10 uM measured after 48 hrs by Alexa Fluor 488 Annexin V/propidium iodide staining based flow cytometry (reference value: 0.51%); assay type: functional
[2] = system: HOS-TE85; assay: Induction of apoptosis in human MNNG cells assessed as necrotic cells at 2.5 uM measured after 48 hrs by Alexa Fluor 488 Annexin V/propidium iodide staining based flow cytometry (reference value: 0.04%); assay type: functional
[3] = system: HOS-TE85; assay: Cell cycle arrest in human MNNG cells assessed as accumulation of cells at G0/G1 phase at 2.5 uM measured after 24 hrs by propidium iodide staining based flow cytometry (reference value: 51.4%); assay type: functional
[4] = system: HOS-TE85; assay: Induction of apoptosis in human MNNG cells assessed as necrotic cells at 5 uM measured after 48 hrs by Alexa Fluor 488 Annexin V/propidium iodide staining based flow cytometry (reference value: 0.04%); assay type: functional
[5] = Toxicity in human MNNG cell xenografted Balb/c mouse assessed as effect on liver at 15 to 45 mg/kg, iv administered every 2 days for 3 weeks and measured post last dose by H and E staining based microscopy; assay type: organism-based; conditions: in vivo, 504 h, dose 15-45 mg/kg, time 21 day
[6] = system: HOS-TE85; assay: Induction of apoptosis in human MNNG cells assessed as necrotic cells at 1 uM measured after 48 hrs by Alexa Fluor 488 Annexin V/propidium iodide staining based flow cytometry (reference value: 0.04%); assay type: functional
[7] = Toxicity in human MNNG cell xenografted Balb/c mouse assessed as effect on spleen at 15 to 45 mg/kg, iv administered every 2 days for 3 weeks and measured post last dose by H and E staining based microscopy; assay type: organism-based; conditions: in vivo, 504 h, dose 15-45 mg/kg, time 21 day
[8] = Toxicity in human MNNG cell xenografted Balb/c mouse assessed as reduction in AST level at 15 to 45 mg/kg, iv administered every 2 days for 3 weeks and measured post last dose; assay type: organism-based; conditions: in vivo, 504 h, dose 15-45 mg/kg, time 21 day
[9] = system: HOS-TE85; assay: Induction of apoptosis in human MNNG cells assessed as early apoptotic cells at 2.5 uM measured after 48 hrs by Alexa Fluor 488 Annexin V/propidium iodide staining based flow cytometry (reference value: 0.69%); assay type: functional
[10] = system: HOS-TE85; assay: Cell cycle arrest in human MNNG cells assessed as accumulation of cells at S phase at 5 uM measured after 24 hrs by propidium iodide staining based flow cytometry (reference value: 39.4%); assay type: functional
[11] = system: HOS-TE85; assay: Induction of apoptosis in human MNNG cells assessed as early apoptotic cells at 5 uM measured after 48 hrs by Alexa Fluor 488 Annexin V/propidium iodide staining based flow cytometry (reference value: 0.69%); assay type: functional
[12] = system: HOS-TE85; assay: Cell cycle arrest in human MNNG cells assessed as accumulation of cells at G0/G1 phase at 5 uM measured after 24 hrs by propidium iodide staining based flow cytometry (reference value: 51.4%); assay type: functional
[13] = system: HOS-TE85; assay: Cell cycle arrest in human MNNG cells assessed as accumulation of cells at G2/M phase at 1 uM measured after 24 hrs by propidium iodide staining based flow cytometry (reference value: 39.4%); assay type: functional
[14] = Toxicity in human MNNG cell xenografted Balb/c mouse assessed as effect on heart at 15 to 45 mg/kg, iv administered every 2 days for 3 weeks and measured post last dose by H and E staining based microscopy; assay type: organism-based; conditions: in vivo, 504 h, dose 15-45 mg/kg, time 21 day
[15] = system: HOS-TE85; assay: Induction of apoptosis in human MNNG cells assessed as viable cells at 10 uM measured after 48 hrs by Alexa Fluor 488 Annexin V/propidium iodide staining based flow cytometry (reference value: 98.8%); assay type: functional; conditions: read-out: Activity
[16] = system: HOS-TE85; assay: Antitumor activity against iv dosed human MNNG cells xenografted in Balb/c mouse assessed as increase in apoptotic cells administered every 2 days for 3 weeks and measured post last dose by TUNEL staining based assay; assay type: functional, organism-based; conditions: dose 15-45 mg/kg, time 21.0 day
[17] = system: HOS-TE85; assay: Cell cycle arrest in human MNNG cells assessed as accumulation of cells at G2/M phase at 10 uM measured after 24 hrs by propidium iodide staining based flow cytometry (reference value: 39.4%); assay type: functional
[18] = system: HOS-TE85; assay: Induction of apoptosis in human MNNG cells assessed as late apoptotic cells at 5 uM measured after 48 hrs by Alexa Fluor 488 Annexin V/propidium iodide staining based flow cytometry (reference value: 0.51%); assay type: functional
[19] = system: HOS-TE85; assay: Cell cycle arrest in human MNNG cells assessed as accumulation of cells at S phase at 1 uM measured after 24 hrs by propidium iodide staining based flow cytometry (reference value: 39.4%); assay type: functional
[20] = system: HOS-TE85; assay: Induction of apoptosis in human MNNG cells assessed as viable cells at 1 uM measured after 48 hrs by Alexa Fluor 488 Annexin V/propidium iodide staining based flow cytometry (reference value: 98.8%); assay type: functional; conditions: read-out: Activity
[21] = system: HOS-TE85; assay: Antitumor activity against human MNNG cells xenografted in Balb/c mouse assessed as tumor growth inhibition at 15 mg/kg, iv administered every 2 days for 3 weeks and measured daily during compound dosing relative to control; assay type: functional; conditions: HOS-TE85, 504 h, time 21 day, read-out: TGI
[22] = system: HOS-TE85; assay: Cytotoxicity against human MNNG cells assessed as cell growth inhibition at 1 uM measured after 72 hrs by MTT assay relative to control; assay type: functional; conditions: read-out: GI
[23] = system: HOS-TE85; assay: Antitumor activity against human MNNG cells xenografted in Balb/c mouse assessed as tumor growth inhibition at 30 mg/kg, iv administered every 2 days for 3 weeks and measured daily during compound dosing relative to control; assay type: functional; conditions: HOS-TE85, 504 h, time 21 day, read-out: TGI
[24] = system: HOS-TE85; assay: Induction of apoptosis in human MNNG cells assessed as necrotic cells at 10 uM measured after 48 hrs by Alexa Fluor 488 Annexin V/propidium iodide staining based flow cytometry (reference value: 0.04%); assay type: functional
[25] = system: HOS-TE85; assay: Induction of reactive oxygen species generation in human MNNG cells measured after 3 hrs by DCFH-DA probe based fluorescence assay; assay type: functional, cell-based; conditions: dose 1-10 µM
[26] = system: HOS-TE85; assay: Cell cycle arrest in human MNNG cells assessed as accumulation of cells at G2/M phase at 2.5 uM measured after 24 hrs by propidium iodide staining based flow cytometry (reference value: 39.4%); assay type: functional
[27] = system: HOS-TE85; assay: Cell cycle arrest in human MNNG cells assessed as accumulation of cells at G2/M phase at 5 uM measured after 24 hrs by propidium iodide staining based flow cytometry (reference value: 39.4%); assay type: functional
[28] = system: HOS-TE85; assay: Cell cycle arrest in human MNNG cells assessed as accumulation of cells at G0/G1 phase at 10 uM measured after 24 hrs by propidium iodide staining based flow cytometry (reference value: 51.4%); assay type: functional
[29] = system: HOS-TE85; assay: Induction of apoptosis in human MNNG cells assessed as early apoptotic cells at 10 uM measured after 48 hrs by Alexa Fluor 488 Annexin V/propidium iodide staining based flow cytometry (reference value: 0.69%); assay type: functional
[30] = Cytotoxicity against HUVEC assessed as cell growth inhibition measured after 72 hrs by MTT assay; assay type: toxicity, cell-based; conditions: human, HUVEC cells
[31] = system: HOS-TE85; assay: Induction of apoptosis in human MNNG cells assessed as viable cells at 5 uM measured after 48 hrs by Alexa Fluor 488 Annexin V/propidium iodide staining based flow cytometry (reference value: 98.8%); assay type: functional; conditions: read-out: Activity
[32] = system: HOS-TE85; assay: Antitumor activity against iv dosed human MNNG cells xenografted in Balb/c mouse assessed as reduction in tumor cell proliferation administered every 2 days for 3 weeks and measured post last dose by Ki-67 staining based assay; assay type: functional, organism-based; conditions: dose 15-45 mg/kg, time 21.0 day
[33] = system: HOS-TE85; assay: Induction of apoptosis in human MNNG cells assessed as viable cells at 2.5 uM measured after 48 hrs by Alexa Fluor 488 Annexin V/propidium iodide staining based flow cytometry (reference value: 98.8%); assay type: functional; conditions: read-out: Activity
[34] = system: HOS-TE85; assay: Cytotoxicity against human MNNG cells assessed as cell growth inhibition at 10 uM measured after 72 hrs by MTT assay relative to control; assay type: functional; conditions: read-out: GI
[35] = system: HOS-TE85; assay: Cell cycle arrest in human MNNG cells assessed as accumulation of cells at G0/G1 phase at 1 uM measured after 24 hrs by propidium iodide staining based flow cytometry (reference value: 51.4%); assay type: functional
[36] = Toxicity in human MNNG cell xenografted Balb/c mouse assessed as reduction in Cr level at 15 to 45 mg/kg, iv administered every 2 days for 3 weeks and measured post last dose; assay type: organism-based; conditions: in vivo, 504 h, dose 15-45 mg/kg, time 21 day
[37] = system: HOS-TE85; assay: Antitumor activity against human MNNG cells xenografted in Balb/c mouse assessed as reduction in number of live cells in tumor at 15 to 45 mg/kg, iv administered every 2 days for 3 weeks and measured post last dose by H and E staining based microscopy; assay type: functional, organism-based; conditions: dose 15-45 mg/kg, time 21.0 day
[38] = system: HOS-TE85; assay: Induction of reactive oxygen species generation in human MNNG cells at 5 to 10 uM measured after 3 hrs in presence of dicoumarol by DCFH-DA probe based fluorescence assay; assay type: functional, cell-based; conditions: dose 5-10 µM
[39] = Toxicity in human MNNG cell xenografted Balb/c mouse assessed as effect on kidney at 15 to 45 mg/kg, iv administered every 2 days for 3 weeks and measured post last dose by H and E staining based microscopy; assay type: organism-based; conditions: in vivo, 504 h, dose 15-45 mg/kg, time 21 day
[40] = system: HOS-TE85; assay: Induction of apoptosis in human MNNG cells assessed as early apoptotic cells at 1 uM measured after 48 hrs by Alexa Fluor 488 Annexin V/propidium iodide staining based flow cytometry (reference value: 0.69%); assay type: functional
[41] = Selectivity index, ratio of IC50 for cytotoxicity against HUVEC to IC50 for cytotoxicity against human MNNG cells; assay type: toxicity, cell-based; conditions: HUVEC and human MNNG cells, read-out: Ratio IC50
[42] = Toxicity in human MNNG cell xenografted Balb/c mouse assessed as body weight loss at 15 to 45 mg/kg, iv administered every 2 days for 3 weeks and measured every other day during compound dosing; assay type: organism-based; conditions: in vivo, 504 h, dose 15-45 mg/kg, time 21 day
[43] = system: HOS-TE85; assay: Induction of apoptosis in human MNNG cells assessed as late apoptotic cells at 1 uM measured after 48 hrs by Alexa Fluor 488 Annexin V/propidium iodide staining based flow cytometry (reference value: 0.51%); assay type: functional
[44] = system: HOS-TE85; assay: Cell cycle arrest in human MNNG cells assessed as accumulation of cells at S phase at 10 uM measured after 24 hrs by propidium iodide staining based flow cytometry (reference value: 39.4%); assay type: functional
[45] = system: HOS-TE85; assay: Cytotoxicity against human MNNG cells assessed as cell growth inhibition measured after 72 hrs by MTT assay; assay type: functional, cell-based; conditions: HOS-TE85, 72 h
[46] = Toxicity in human MNNG cell xenografted Balb/c mouse assessed as mortality at 15 to 45 mg/kg, iv administered every 2 days for 3 weeks and measured every other day during compound dosing; assay type: organism-based; conditions: in vivo, 504 h, dose 15-45 mg/kg, time 21 day
[47] = Toxicity in human MNNG cell xenografted Balb/c mouse assessed as effect on lung at 15 to 45 mg/kg, iv administered every 2 days for 3 weeks and measured post last dose by H and E staining based microscopy; assay type: organism-based; conditions: in vivo, 504 h, dose 15-45 mg/kg, time 21 day
[48] = system: HOS-TE85; assay: Induction of apoptosis in human MNNG cells assessed as late apoptotic cells at 2.5 uM measured after 48 hrs by Alexa Fluor 488 Annexin V/propidium iodide staining based flow cytometry (reference value: 0.51%); assay type: functional
[49] = system: HOS-TE85; assay: Antitumor activity against human MNNG cells xenografted in Balb/c mouse assessed as tumor growth inhibition at 45 mg/kg, iv administered every 2 days for 3 weeks and measured daily during compound dosing relative to control; assay type: functional; conditions: HOS-TE85, 504 h, time 21 day, read-out: TGI
[50] = system: HOS-TE85; assay: Cell cycle arrest in human MNNG cells assessed as accumulation of cells at S phase at 2.5 uM measured after 24 hrs by propidium iodide staining based flow cytometry (reference value: 39.4%); assay type: functional

Cc1cc2c(cc1C)-c1oc(CN3CCOCC3)c(C)c1C(=O)C2=O
Activity [1]: 17.7% | Activity [2]: 0.55% | Activity [3]: 53% | Activity [4]: 0.08% | Activity [5]: Non-toxic | Activity [6]: 0.38% | Activity [7]: Non-toxic | Activity [8]: Toxic | Activity [9]: 10.6% | Activity [10]: 37.8% | Activity [11]: 18.1% | Activity [12]: 55.9% | Activity [13]: 9.2% | Activity [14]: Non-toxic | viability at 10 µM [15]: 58.8% | Activity [16]: Dose-dependent-effect | Activity [17]: 10.2% | Activity [18]: 12.8% | Activity [19]: 41.1% | viability at 1 µM [20]: 89.3% | inhibition in vivo at 15 mg/kg [21]: 48.2% | inhibition of growth at 1 µM [22]: 38.2% | inhibition in vivo at 30 mg/kg [23]: 63.4% | Activity [24]: 0.42% | Activity [25]: Dose-dependent-effect | Activity [26]: 9.2% | Activity [27]: 6.3% | Activity [28]: 63.7% | Activity [29]: 23.1% | IC50 at 72 h [30]: 19 µM | viability at 5 µM [31]: 69% | Activity [32]: Active | viability at 2.5 µM [33]: 73.6% | inhibition of growth at 10 µM [34]: 99.5% | Activity [35]: 49.7% | Activity [36]: Toxic | Activity [37]: Active | Activity [38]: inactive | Activity [39]: Non-toxic | Activity [40]: 3.34% | selectivity ratio [41]: 13.3 | Activity [42]: Non-toxic | Activity [43]: 6.97% | Activity [44]: 26.1% | IC50 [45]: 1.54 µM | Activity [46]: Non-toxic | Activity [47]: Non-toxic | Activity [48]: 15.2% | inhibition in vivo at 45 mg/kg [49]: 73.6% | Activity [50]: 37.8%
